Reference: ChEMBL document CHEMBL4392829, “Synthesis and biological evaluation of 3-substituted 2-oxindole derivatives as new glycogen synthase kinase 3β inhibitors” (Bioorg Med Chem, 2019)
Active and inactive are the calls of the source. The rule behind the calls is not given here.

How the values were obtained:
[1] = tested on: A549; experiment: Cytotoxicity against human A549 cells assessed as reduction in cell viability measured after 72 hrs by MTT assay; type: cell-based
[2] = target: Glycogen synthase kinase-3 beta (Homo sapiens, UniProt P49841); experiment: Inhibition of recombinant human GSK3beta using YRRAAVPPSPSLSRHSSPHQ(pS)EDEEE as substrate measured after 60 mins by ADP-Glo luminescence assay
Glycogen synthase kinase-3 beta, sequence (P49841 whole entry): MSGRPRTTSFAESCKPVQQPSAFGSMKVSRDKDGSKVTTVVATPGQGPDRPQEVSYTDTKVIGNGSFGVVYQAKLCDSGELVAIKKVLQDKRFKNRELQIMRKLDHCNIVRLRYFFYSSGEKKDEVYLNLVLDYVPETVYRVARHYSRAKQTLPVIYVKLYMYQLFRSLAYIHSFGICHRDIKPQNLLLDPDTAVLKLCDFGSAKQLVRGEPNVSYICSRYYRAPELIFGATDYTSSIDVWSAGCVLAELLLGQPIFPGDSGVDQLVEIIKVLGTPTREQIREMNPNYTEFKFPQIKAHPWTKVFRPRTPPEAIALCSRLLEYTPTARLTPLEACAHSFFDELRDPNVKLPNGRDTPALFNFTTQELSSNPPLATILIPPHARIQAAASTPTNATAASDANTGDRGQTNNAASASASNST

[3] = tested on: PBMC; experiment: Cytotoxicity against human PBMC assessed as reduction in cell viability at 0.1 to 10 uM measured after 24 hrs by MTT assay; type: cell-based
[4] = tested on: Rattus norvegicus; experiment: Antidiabetic activity in […]/STZ-induced obese type-2 diabetes Wistar rat model assessed as reduction in blood glucose level at 50 mg/kg, ip pretreated for 30 mins followed by glucose challenge and measured up to 120 mins by OGTT; type: functional, organism-based
[5] = tested on: Rattus norvegicus; experiment: Antidiabetic activity in […]/STZ-induced obese type-2 diabetes Wistar rat model assessed as reduction in blood glucose level at 10 mg/kg, ip pretreated for 30 mins followed by glucose challenge and measured up to 120 mins by OGTT; type: functional, organism-based
[6] = tested on: PBMC; experiment: Cytotoxicity against human PBMC assessed as reduction in cell viability at 10 uM measured after 24 hrs by MTT assay; type: cell-based
[7] = Homo sapiens, A549, 72 h, read-out: IC50

Row | SMILES | IC50 [1, 7] [µM] | IC50 [2] [µM] | other results
1 | Cc1ccc(C(=O)CC2(O)C(=O)Nc3ccc(Br)cc32)cc1 (stereo not given) | > 100 | > 10 | 
2 | O=C1Nc2ccc([N+](=O)[O-])cc2/C1=C\c1ccccn1 |  | 20 | IC50 ([1]; a549): Non-Toxic
3 | O=C1Nc2ccccc2/C1=C/c1ccccn1 | 48 | 0.00419 | Activity [3]: Non-Toxic; Activity [4]: Active
4 | Cc1ccc(C(=O)/C=C2\C(=O)Nc3ccccc32)cc1 | 18.7 | > 10 | 
5 | CC[C@@]1(O)C(=O)OCc2c1cc1n(c2=O)Cc2cc3ccccc3nc2-1 [CAMPTOTHECIN] | 3.32 |  | 
6 | COc1cc(/C=C2\C(=O)Nc3ccc(NC(C)=O)cc32)cc(OC)c1OC |  |  | Activity [3]: Non-Toxic; IC50 ([1]; a549, read-out: IC50): 149 µM
7 | COc1ccc2c(c1)/C(=C/C#N)C(=O)N2Cc1ccccc1 |  | > 10 | 
8 | COc1cccc2c1C(=O)c1c(O)c3c(c(O)c1C2=O)C[C@@](O)(C(C)=O)C[C@@H]3O[C@H]1C[C@H](N)[C@H](O)[C@H](C)O1 [DAUNORUBICIN] | 0.15 |  | 
9 | O=C1Nc2ccc(Br)cc2C1=Cc1ccncc1 (mixture of isomers) | 22.3 | > 10 | 
10 | O=C1Nc2ccc(Br)cc2C1=Cc1cccnc1 (mixture of isomers) | 31.4 | > 10 | 
11 | COC(=O)Nc1ccc2c(c1)/C(=C/c1ccc(Br)cc1)C(=O)N2 | > 100 | > 10 | 
12 | Cc1ccc(C(=O)CC2(O)C(=O)Nc3ccccc32)cc1 (stereo not given) | 171 | > 10 | 
13 | CC(=O)Nc1ccc2c(c1)/C(=C/c1cccc(O)c1)C(=O)N2 | 176 | > 10 | 
14 | O=C1Nc2ccc(Br)cc2C1=Cc1ccco1 (mixture of isomers) | 449 | > 10 | 
15 | CCC(=O)Nc1cc(NC(=O)CC)c2c(c1)C(CC#N)(OC(=O)CC)C(=O)N2 (stereo not given) |  | > 10 | 
16 | O=C1Nc2ccc(Br)cc2C1=Cc1cccs1 (mixture of isomers) | 427 | > 10 | 
17 | CC(=O)Nc1ccc2c(c1)C(CC(=O)O)(OC(C)=O)C(=O)N2 (stereo not given) |  | > 10 | 
18 | COc1ccc(C(=O)CC2(O)C(=O)Nc3ccc(Br)cc32)cc1 (stereo not given) | 474 | > 10 | 
19 | O=C1Nc2ccccc2/C1=C/c1ccco1 | 595 | > 10 | 

Row | SMILES | IC50 [1, 7] [µM] | IC50 [2] [µM] | other results
20 | O=C1Nc2ccc(Br)cc2/C1=C\c1ccccn1 | 90.6 | > 10 | 
21 | O=C1Nc2ccc(Br)cc2C1=Cc1ccc(Br)cc1 (mixture of isomers) | 242 | > 10 | 
22 | N#C[C@@H]1CCCN1C(=O)CNC12CC3CC(CC(O)(C3)C1)C2 |  |  | Activity [5]: Active
23 | COc1ccc2c(c1)C(O)(CC(=O)c1ccc(C)cc1)C(=O)N2 (stereo not given) | > 100 | > 10 | 
24 | O=C1Nc2ccccc2C12CC2c1ccccn1 (stereo not given) | > 100 | 1.23 | Activity [3]: Non-Toxic
25 | O=C1Nc2ccccc2/C1=C/c1cccs1 | 491 | > 10 | 
26 | COC(=O)Nc1ccc2c(c1)/C(=C/c1ccc(O)cc1)C(=O)N2 |  |  | Activity [3]: Non-Toxic; IC50 ([1]; a549, read-out: IC50): 44.4 µM
27 | COc1cccc2c1C(=O)c1c(O)c3c(c(O)c1C2=O)C[C@@](O)(C(=O)CO)C[C@@H]3O[C@H]1C[C@H](N)[C@H](O)[C@H](C)O1 [DOXORUBICIN] | 0.17 |  | 
28 | O=C1Nc2ccc([N+](=O)[O-])cc2C1=Cc1ccncc1 (mixture of isomers) |  | > 10 | IC50 ([1]; a549): Non-Toxic
29 | O=C1Nc2ccc([N+](=O)[O-])cc2C1=Cc1cccnc1 (mixture of isomers) |  | > 10 | IC50 ([1]; a549, read-out: IC50): 429 µM
30 | COc1ccc2c(c1)/C(=C/C(=O)O)C(=O)N2 |  | > 10 | 
31 | O=C1Nc2ccc(NC(=O)c3ccccc3)cc2/C1=C/c1ccc(O)cc1 |  | 4.34 | IC50 ([1]; a549, read-out: IC50): 412 µM; Activity [6]: Toxic
32 | COc1cc(NC(C)=O)c2c(c1)C(CC#N)(OC(C)=O)C(=O)N2 (stereo not given) |  | > 10 | 
33 | O=C1Nc2ccccc2C1=Cc1cccnc1 (mixture of isomers) |  | > 10 | IC50 ([1]; a549, read-out: IC50): 67.5 µM
34 | COc1ccc(C(=O)CC2(O)C(=O)Nc3ccccc32)cc1 (stereo not given) | > 100 | > 10 | 
35 | N#CCC1(O)C(=O)Nc2ccc(NC(=O)c3ccccc3)cc21 (stereo not given) |  | > 10 | 
36 | O=C1Nc2ccccc2C1=Cc1ccncc1 (mixture of isomers) | 80.3 | > 10 | 
37 | COC(=O)Nc1ccc2c(c1)C(=Cc1ccc([N+](=O)[O-])cc1)C(=O)N2 (mixture of isomers) |  |  | Activity [3]: Non-Toxic; IC50 ([1]; a549, read-out: IC50): > 100 µM
38 | O=C1Nc2ccc([N+](=O)[O-])cc2/C1=C/c1ccco1 |  | 12.8 | IC50 ([1]; a549, read-out: IC50): 329 µM
